Assay results published in publication PMC4624507 (2015).

Assays:
Assay in all cases: ITC
Settings in all cases: 135 mM KCl, 15 mM NaCl, 10 mM MgCl2; 50 mM TrisCl pH 8.0, 37 °C
[1] = test system: metE aptamer A153C (RNA, riboswitch) GGCAUUUUCUCUUAUCGAGAGUUGGGCGAGGGAUUGGCCUUUUGACCCCAACAGCAACCGACCGUAAUACCAUUGUGAAAUGGGGCGCACUGCUUUUCGCGCCGAGACUGAUGUCUCAUAAGGCCCGGUGCUAAUUCCAUCAGAUUGUGUCUGAGAGAUGAGAGAGGCAGUG
[2] = test system: B. subtilis metE wild type aptamer domain (RNA, riboswitch) GGCAUUUUCUCUUAUCGAGAGUUGGGCGAGGGAUUGGCCUUUUGACCCCAACAGCAACCGACCGUAAUACCAUUGUGAAAUGGGGCGCACUGCUUUUCGCGCCGAGACUGAUGUCUCAUAAGGCACGGUGCUAAUUCCAUCAGAUUGUGUCUGAGAGAUGAGAGAGGCAGUG
[3] = test system: metE aptamer A153G (RNA, riboswitch) GGCAUUUUCUCUUAUCGAGAGUUGGGCGAGGGAUUGGCCUUUUGACCCCAACAGCAACCGACCGUAAUACCAUUGUGAAAUGGGGCGCACUGCUUUUCGCGCCGAGACUGAUGUCUCAUAAGGCGCGGUGCUAAUUCCAUCAGAUUGUGUCUGAGAGAUGAGAGAGGCAGUG
[4] = test system: metE aptamer U157A (RNA, riboswitch) GGCAUUUUCUCUUAUCGAGAGUUGGGCGAGGGAUUGGCCUUUUGACCCCAACAGCAACCGACCGUAAUACCAUUGUGAAAUGGGGCGCACUGCUUUUCGCGCCGAGACUGAUGUCUCAUAAGGCACGGAGCUAAUUCCAUCAGAUUGUGUCUGAGAGAUGAGAGAGGCAGUG
[5] = test system: metE aptamer A89G/Δ153 (RNA, riboswitch) GGCAUUUUCUCUUAUCGAGAGUUGGGCGAGGGAUUGGCCUUUUGACCCCAACAGCAACCGGCCGUAAUACCAUUGUGAAAUGGGGCGCACUGCUUUUCGCGCCGAGACUGAUGUCUCAUAAGGCCGGUGCUAAUUCCAUCAGAUUGUGUCUGAGAGAUGAGAGAGGCAGUG

- KD,obs [1]: 0.15 ± 0.02 µM
- KD,obs [2]: 0.079 ± 0.008 µM
- KD,obs [3]: 0.15 ± 0.02 µM
- KD,obs [4]: 24 ± 7 µM
- KD,obs [5]: 16 ± 1 µM
Compound: C[S+](CC[C@H](N)C(=O)O)C[C@H]1O[C@@H](n2cnc3c(N)ncnc32)[C@H](O)[C@@H]1O (some centres unmarked)
